Measurements as given in patent publication US8221762B2, “Naturally processed measles virus peptides from class II HLA molecules” (priority 2004, dated 2012).

Experiments:
[1] = system: PBMC from subjects previously immunized with MMR-II vaccine; test: T cell proliferation assay ([3H]-thymidine, 3 days, SI cut point 3.0), Example 1; type: cell-based, human; details: for subjects with stimulation index greater than 3.0 (recognized) / stimulation index, median / stimulation index, range / median cpm value, lymphoproliferative assay: 95 subjects; for stimulation index, median / stimulation index, range / median cpm value, lymphoproliferative assay: peptides 20 μg/ml; for stimulation index, median / stimulation index, range: MV 50 PFU/well; for median cpm value, lymphoproliferative assay: live attenuated MV 50 PFU/well, 3 days
Source text: Study participants included ninety-five healthy residents of Olmsted County, Minn., aged 11 to 18 years. […] Mononuclear leukocytes were isolated by Ficoll-Hypaque (Amersham) density gradient centrifugation.
For descriptive analyses, we used medians and ranges for continuous variables and frequencies for categorical variables. We compared cpm for MV-stimulated, MV-P1-stimulated and MV-P2-stimulated cells with unstimulated cells using Wilcoxon signed rank tests. Associations between the continuously distributed stimulation indices for MV-P1, MV-P2 peptides, and MV were determined using Spearman rank correlation coefficients. Stimulation indices were subsequently dichotomized into positive or negative using a cut point of 3.0. We then compared MV positivity with MV-P1 and MV-P2 positivity using estimates of sensitivity.

[2] = system: PBMC of subjects previously immunized with MMR-II vaccine; test: IFN-γ supernatant cytokine response (ELISA) to measles virus and synthetic measles peptides; type: cell-based, human; details: for Median secretion value IFN-γ: stimulated minus control cells
Protocol: (§1) To evaluate the immunogenicity of measles-derived peptides, 281 of these subjects (age 12 to 18 years) were studied.
(§2) Cryopreserved PBMC were used to measure cytokine responses to measles-derived peptides. We thawed cryopreserved PBMC at a concentration of 1×10^7 cells/mL using standard protocol. The vials were rapidly thawed in a 37° C. water bath and then washed twice with 10× volume of complete RPMI 1640 media supplemented with 10% FCS at 700 rpm for 5 minutes. The final cell pellet was resuspended in complete RPMI media containing penicillin-streptomycin (100 U/mL) and supplemented with 5% normal human AB sera (Ervin Sci., Santa Ana, Calif.). For IFN-γ determination, thawed PBMC were cultured at a concentration of 2×10^5 in RPMI containing 5% normal human AB sera with or without measles peptides (10 μg/well) and MV (positive control) at a moi of 0.5 for 6 days. For IL-4 determination in cell culture supernatants, we cultured thawed PBMC at a concentration of 4×10^5 in RPMI media, supplemented with 5% normal human AB sera. Cells were cultured in the presence of 2 μg/mL of IL-4 receptor antibody (R&D Systems, Minneapolis, Minn.) (Ekerfelt, et al., J. Immunol. Methods 260:55-67, 2002) with or without synthetic measles-derived peptides (10 μg/well) and MV (positive control) at a moi of 0.1 for 6 days. Cell culture supernatants were collected in a volume of 150 μl/well for both IFN-γ and IL-4 and were frozen at […] until assayed. The culture supernatants were assayed using a standard ELISA protocol (OptiEtA Human IFN-γ and IL-4, PharMingen, San Diego, Calif.) at a dilution of 1:1 in PBS containing 10% FCS. ELISA plates (Immulon-4, DYNEX Technologies Inc, Chantilly, Va.) were coated with capture IFN-γ or IL-4 mAb and incubated overnight at 4° C. The antibody-coated plates were incubated with diluted supernatant samples for 2 hours at room temperature followed by incubation with biotinylated mouse anti-human IFN-γor IL-4 conjugated to avidin-horseradish peroxidase for 1 hour at room temperature. The absorbance of the product was read using a microplate reader (Molecular Devices, Sunnyvale, Calif.) at 450 nm. The IFN-γ and IL-4 concentration of test samples was calculated by reference to the standard curve. Unstimulated and MV-stimulated secretion measurements for IFN-γ were performed in triplicate, while all other secretion measurements for both IFN-γ and IL-4 were performed in duplicate. Individual-specific values were then summarized by taking means of the duplicate or triplicate values. Mean background levels of IFN-γ and IL-4 cytokine production in cultures not stimulated with measles peptides or MV was subtracted from the mean antigen-induced responses to produce “corrected” secretion values. Negative corrected values indicate that the unstimulated secretion levels were, on average, higher than the stimulated secretion levels.
(§3) Two criteria were established to define positive responses for secreted IFN-γ and IL-4 cytokines using ELISA.

[3] = system: PBMC of subjects previously immunized with MMR-II vaccine; test: T cell proliferation assay ([3H]-thymidine, 4 days, SI>2 positive), Example 3; details: for subjects with stimulation index greater than 2 (positive lymphoproliferative response) / stimulation index, median / stimulation index, range: 131 subjects (MV-P2 130, MV-F 43); for stimulation index, median / stimulation index, range: peptides 20 μg/ml, MV 50 pfu/ml, 4 days
Protocol: Briefly, study participants were enrolled as part of a larger stratified random sample study to assess associations between HLA genes and immune response to measles-mumps-rubella-II (MMR-II) vaccine in healthy, school-age children and young adults (ages 12 to 18 years). To evaluate the cellular responses to measles peptides, 131 subjects were used. In addition, a random subset of 43 individuals was tested for reactivity to a control measles fusion (F) peptide. All enrolled subjects had been previously immunized with two doses of MMR-II vaccine (Merck Research, West Point, Pa.) containing the attenuated Edmonston strain of MV. All but four of these participants were Caucasian and all subjects resided in a geographic area where no wild-type MV had circulated in the community during the subjects' lifetimes.
In brief, peripheral blood mononuclear cells (PBMC) were separated from heparinized blood by Ficoll-Hypaque (Sigma, St. Louis, Mo.) density gradient centrifugation and washed in RPMI 1640 medium (Celox Laboratories, Inc., St. Paul, Minn.) supplemented with 2 mM L-glutamine, 100 μg/ml streptomycin, 100 U/ml penicillin and 8% fetal calf serum (Life Technologies, Gaithersburg, Md.). Measles virus, MV-P1, MV-P2, and MV-F specific T cell responses were measures by proliferation of PBMC (2×10^5) incubated in RPMI-1640 medium, supplemented with 5% autologous sera, with live attenuated MV (50 pfu/ml, positive control) or synthetic peptides (20 μg/ml) compared to unstimulated cell control wells. Phytohemagglutinin (PHA, 5 μg/ml) was used to assess cell vitality. Only assays in which PBMC responded to PHA were accepted. T lymphocyte proliferation was measured after 4 days by [^3H]-tritiated thymidine uptake. Cells were then harvested onto glass fiber filters, using a 96-well harvesting system (Skatron Instruments, Norway). The amount of incorporated radioactivity was determined by a liquid scintillation counter (Packard Instrument Company, Boston, Mass.). We used six replicates of counts per minute (cpm) values for unstimulated cells, and three replicates each for T cells stimulated with peptides and live measles vaccine. For each subject, median cpm were calculated for unstimulated cells, as well as for cells stimulated with MV-P1, MV-P2, MV-F and measles. Results were then expressed as antigen-specific stimulation indices (SI), defined as the ratio of the median cpm of antigen-stimulated wells to the median cpm of unstimulated control wells. […] SI>2 was arbitrarily selected prior to the study as an indication of the presence of reactive peptide specific memory T cells, and SI<2 as an indicator of the lack of memory T lymphocytes to measles-derived peptides (Pauksen, et al., Bone Marrow Transplant 20:317-323, 1997).
Three outcomes were of primary interest: T cell proliferation (as measured by stimulation indices) induced separately by live MV, the MV-P1 peptide, and the MV-P2 peptide variant. Data were descriptively summarized using frequencies and percentages for all categorical variables, and medians and ranges for all continuous variables.

[4] = system: PBMC of subjects previously immunized with MMR-II vaccine; test: IL-4 supernatant cytokine response (ELISA) to measles virus and synthetic measles peptides; type: cell-based, human; details: for Median secretion value IL-4: stimulated minus control cells
Protocol: as §1, §2, §3

[5] = 281 subjects, stimulated cells minus unstimulated cells

Compound: CC[C@H](C)[C@H](NC(=O)[C@H](CCC(=O)O)NC(=O)CNC(=O)CNC(=O)[C@H](CCC(=O)O)NC(=O)[C@H](C)NC(=O)[C@@H](NC(=O)[C@H](CCC(=O)O)NC(=O)[C@@H](NC(=O)[C@H](CC(=O)O)NC(=O)[C@H](CO)NC(=O)[C@H](C)N)C(C)C)[C@@H](C)O)C(=O)N[C@@H](Cc1c[nH]cn1)C(=O)N[C@@H](CCC(=O)O)C(=O)N[C@@H](CC(C)C)C(=O)N[C@@H](CC(C)C)C(=O)N[C@@H](CCCNC(=N)N)C(=O)N[C@@H](CC(C)C)C(=O)N[C@@H](CCC(N)=O)C(=O)O [MV-P1]
- subjects with stimulation index greater than 3.0 (recognized) [1]: 17%
- stimulation index, median [1]: 1.4
- stimulation index, range [1]: 0.5-20.3
- median cpm value, lymphoproliferative assay [1]: 472 cpm
- IFN-γ % Response (>20 pg/mL) ([2]; 281 subjects, peptides 10 μg/well, MV moi 0.5, 6 days): 55.9%
- IFN-γ Median level [2, 5]: 28.0 pg/mL
- Median secretion value IFN-γ ([2]; All other HLA-DRB1 alleles): 26.7 pg/mL
- Median secretion value IFN-γ ([2]; HLA-DRB1 allele *0101): 51.2 pg/mL
- Median secretion value IFN-γ ([2]; HLA-DRB1 allele *0102): 17.6 pg/mL
- Median secretion value IFN-γ ([2]; HLA-DRB1 allele *0103): 116.2 pg/mL
- Median secretion value IFN-γ ([2]; HLA-DRB1 allele *0301): 40.8 pg/mL
- Median secretion value IFN-γ ([2]; HLA-DRB1 allele *0401): 33.5 pg/mL
- Median secretion value IFN-γ ([2]; HLA-DRB1 allele *0402): 0.1 pg/mL
- Median secretion value IFN-γ ([2]; HLA-DRB1 allele *0404): 52.2 pg/mL
- Median secretion value IFN-γ ([2]; HLA-DRB1 allele *0407): 8.6 pg/mL
- Median secretion value IFN-γ ([2]; HLA-DRB1 allele *0701): 18.6 pg/mL
- Median secretion value IFN-γ ([2]; HLA-DRB1 allele *0801): 27.2 pg/mL
- Median secretion value IFN-γ ([2]; HLA-DRB1 allele *0901): 19.9 pg/mL
- Median secretion value IFN-γ ([2]; HLA-DRB1 allele *1001): 46.9 pg/mL
- Median secretion value IFN-γ ([2]; HLA-DRB1 allele *1101): 48.5 pg/mL
- Median secretion value IFN-γ ([2]; HLA-DRB1 allele *1103): 65.3 pg/mL
- Median secretion value IFN-γ ([2]; HLA-DRB1 allele *1104): 15.4 pg/mL
- Median secretion value IFN-γ ([2]; HLA-DRB1 allele *1201): 14.6 pg/mL
- Median secretion value IFN-γ ([2]; HLA-DRB1 allele *1301): 27.4 pg/mL
- Median secretion value IFN-γ ([2]; HLA-DRB1 allele *1302): 14.2 pg/mL
- Median secretion value IFN-γ ([2]; HLA-DRB1 allele *1303): 63.9 pg/mL
- Median secretion value IFN-γ ([2]; HLA-DRB1 allele *1401): 22.5 pg/mL
- Median secretion value IFN-γ ([2]; HLA-DRB1 allele *1501): 32.8 pg/mL
- Median secretion value IFN-γ ([2]; HLA-DRB1 allele *03011): 18.7 pg/mL
- Median secretion value IFN-γ ([2]; Overall (281)): 28.0 pg/mL
- MV IFN-γ responders who also produced IFN-γ to the peptide ([2]; among the 185 subjects who responded to MV): 59.5%
- subjects with stimulation index greater than 2 (positive lymphoproliferative response) [3]: 41%
- stimulation index, median [3]: 1.7
- stimulation index, range [3]: 0.5-20.3
- IL-4 % Response (>10 pg/mL) ([4]; 281 subjects, peptides 10 μg/well, MV moi 0.1, 6 days): 19.2%
- IL-4 Median level [4, 5]: -0.4 pg/mL
- Median secretion value IL-4 ([4]; All other HLA-DRB1 alleles): -1.3 pg/mL
- Median secretion value IL-4 ([4]; HLA-DRB1 allele *0101): 1.1 pg/mL
- Median secretion value IL-4 ([4]; HLA-DRB1 allele *0102): 5.6 pg/mL
- Median secretion value IL-4 ([4]; HLA-DRB1 allele *0103): -1.5 pg/mL
- Median secretion value IL-4 ([4]; HLA-DRB1 allele *0301): 3.5 pg/mL
- Median secretion value IL-4 ([4]; HLA-DRB1 allele *0401): 0.9 pg/mL
- Median secretion value IL-4 ([4]; HLA-DRB1 allele *0402): 3.8 pg/mL
- Median secretion value IL-4 ([4]; HLA-DRB1 allele *0404): 0.3 pg/mL
- Median secretion value IL-4 ([4]; HLA-DRB1 allele *0407): -2.1 pg/mL
- Median secretion value IL-4 ([4]; HLA-DRB1 allele *0701): -0.6 pg/mL
- Median secretion value IL-4 ([4]; HLA-DRB1 allele *0801): -1.4 pg/mL
- Median secretion value IL-4 ([4]; HLA-DRB1 allele *0901): -0.9 pg/mL
- Median secretion value IL-4 ([4]; HLA-DRB1 allele *1001): 0.9 pg/mL
- Median secretion value IL-4 ([4]; HLA-DRB1 allele *1101): -3.7 pg/mL
- Median secretion value IL-4 ([4]; HLA-DRB1 allele *1103): -3.5 pg/mL
- Median secretion value IL-4 ([4]; HLA-DRB1 allele *1104): -1.3 pg/mL
- Median secretion value IL-4 ([4]; HLA-DRB1 allele *1201): -0.4 pg/mL
- Median secretion value IL-4 ([4]; HLA-DRB1 allele *1301): -3.0 pg/mL
- Median secretion value IL-4 ([4]; HLA-DRB1 allele *1302): 1.2 pg/mL
- Median secretion value IL-4 ([4]; HLA-DRB1 allele *1303): -4.2 pg/mL
- Median secretion value IL-4 ([4]; HLA-DRB1 allele *1401): -0.8 pg/mL
- Median secretion value IL-4 ([4]; HLA-DRB1 allele *1501): -0.7 pg/mL
- Median secretion value IL-4 ([4]; HLA-DRB1 allele *03011): 0.2 pg/mL
- Median secretion value IL-4 ([4]; Overall (281)): -0.4 pg/mL
- MV IL-4 responders who also responded to the peptide ([4]; among the 143 subjects with IL-4 production from MV-stimulated PBMC): 23.1%

Compound: CC[C@H](C)[C@H](NC(=O)[C@H](CCC(=O)O)NC(=O)CNC(=O)CNC(=O)[C@H](CCC(=O)O)NC(=O)[C@H](C)NC(=O)[C@@H](NC(=O)[C@H](CCC(=O)O)NC(=O)[C@@H](NC(=O)[C@H](CC(=O)O)NC(=O)[C@H](CO)NC(=O)[C@H](C)N)C(C)C)[C@@H](C)O)C(=O)N[C@@H](Cc1c[nH]cn1)C(=O)N[C@@H](CCCCN)C(=O)N[C@@H](CC(C)C)C(=O)N[C@@H](CC(C)C)C(=O)N[C@@H](CCCNC(=N)N)C(=O)N[C@@H](CC(C)C)C(=O)N[C@@H](CCC(N)=O)C(=O)O [MV-P2]
- subjects with stimulation index greater than 3.0 (recognized) [1]: 5%
- stimulation index, median [1]: 1.2
- stimulation index, range [1]: 0.5-16.2
- median cpm value, lymphoproliferative assay [1]: 359 cpm
- subjects with stimulation index greater than 2 (positive lymphoproliferative response) [3]: 17%
- stimulation index, median [3]: 1.2
- stimulation index, range [3]: 0.4-16.2
- MV-P1 responders who also responded to the peptide ([3]; among the 52 subjects who responded to the MV-P1 peptide): 23%

Compound: MV-F: randomly chosen 14 amino acid control peptide of the MV F protein (PLRHQATTASSTKP) [reference compound]
- proliferation in immunized healthy subjects ([1]; irrelevant control peptide, data not shown): little or no proliferation
- subjects with stimulation index greater than 2 (positive lymphoproliferative response) [3]: 11%
- stimulation index, median [3]: 1
- stimulation index, range [3]: 0-3
